The nature of assay [1]: decrease of insulin promoter-GFP reporter – imaging, high-content screening, mouse beta cells (AID 1628). It counts as functional. The note with it: MIN6.
Assay [2] in a line: MIN6 cell viability loss – mouse insulinoma, cytotoxicity control, dose response (AID 2122).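 Note: confirmatory high-throughput counterscreen run to flag cytotoxic compounds.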 Type of assay: functional.
Assay [3] in a line: Luminescence Cell-Based Dose Retest to Confirm Inhibitors of Cancer Stem Cells. [Related pubchem assays (depositor defined):AID2717, AID2721]. Type of assay: functional. The settings on record: Homo sapiens.
Assay [4] is described as follows: Trypanosoma cruzi growth suppression in host cells – NIH3T3 host cells, beta-gal luminescence, confirmation (AID 2044).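 Note: intracellular parasites grown in NIH/3T3 mouse fibroblasts as host cells; luminescent beta-galactosidase reporter signal from transgenic T. cruzi replicating inside host cells; inhibitors lower the luminescence signal.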 It counts as functional, cell-based.
Assay [5] can be described thus: NIH3T3 cell viability loss – ATP luminescence, mouse fibroblasts, counter-screen, dose response (AID 2010).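 Note: cells exposed to compound for about 90 hours before reading.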 Type of assay: functional, cell-based.
For assay [6], the target named is T1, G-protein coupled receptor 35 (Homo sapiens, UniProt Q9HC97). The experiment in a line: inhibition of zaprinast-stimulated GPR35 beta-arrestin translocation – imaging, U2OS, beta-arrestin-GFP, zaprinast agonist, primary screen (AID 2058).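 Note: antagonist potency meaning inhibition of agonist-induced arrestin redistribution.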 It counts as functional.
For assay [7], the target named is T1, G-protein coupled receptor 35. The experiment in a line: SAR Analysis for the identification of Selective Antagonists of ERK1/2 Activity in GPR35-Overexpressing U2OS Cells. [Related pubchem assays: 2079, 2058 ]. Type of assay: functional, cell-based.
For assay [8], the target named is Tyrosine-protein phosphatase non-receptor type 12 (Homo sapiens, UniProt Q05209). The experiment in a line: SAR Selectivity Analysis of small molecule inhibitors of PEST using pCAP in a fluorescence assay. [Related pubchem assays (depositor defined):AID1779, AID1784, AID2135]. It counts as functional.
Assay [9] has as its target T2, Tyrosine-protein phosphatase non-receptor type 22 (Homo sapiens, UniProt Q9Y2R2).
T2 sequence (Q9Y2R2 whole entry): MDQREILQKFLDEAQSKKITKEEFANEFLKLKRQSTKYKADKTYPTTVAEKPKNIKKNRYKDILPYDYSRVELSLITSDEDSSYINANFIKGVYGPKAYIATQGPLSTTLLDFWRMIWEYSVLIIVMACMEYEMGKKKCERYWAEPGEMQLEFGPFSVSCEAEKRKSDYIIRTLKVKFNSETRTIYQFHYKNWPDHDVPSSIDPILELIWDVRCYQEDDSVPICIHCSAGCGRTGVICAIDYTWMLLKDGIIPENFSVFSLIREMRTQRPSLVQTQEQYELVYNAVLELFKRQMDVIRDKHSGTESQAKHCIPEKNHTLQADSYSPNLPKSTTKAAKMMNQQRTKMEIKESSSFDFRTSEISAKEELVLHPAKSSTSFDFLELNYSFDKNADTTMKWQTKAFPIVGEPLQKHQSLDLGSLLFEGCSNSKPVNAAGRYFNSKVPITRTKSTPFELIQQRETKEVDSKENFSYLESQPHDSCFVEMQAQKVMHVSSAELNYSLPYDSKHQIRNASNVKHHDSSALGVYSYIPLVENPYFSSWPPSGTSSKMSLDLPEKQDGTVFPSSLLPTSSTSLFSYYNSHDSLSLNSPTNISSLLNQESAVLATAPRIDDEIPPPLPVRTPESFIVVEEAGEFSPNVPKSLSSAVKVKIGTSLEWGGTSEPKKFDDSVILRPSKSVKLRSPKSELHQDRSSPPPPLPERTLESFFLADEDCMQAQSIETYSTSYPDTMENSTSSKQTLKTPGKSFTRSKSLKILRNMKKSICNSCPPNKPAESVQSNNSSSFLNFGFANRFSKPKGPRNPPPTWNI
The experiment in a line: SAR LYP1 Fluorescent Assay using OMFP substrate for In Vitro dose response studies - Set 3. [Related pubchem assays (depositor defined):AID1779, AID1784, AID2140, AID2686]. Type of assay: functional.

Assay [10] has as its target T2, Tyrosine-protein phosphatase non-receptor type 22. Description: inhibition of lymphoid tyrosine phosphatase LYP – biochemical, pCAP fluorogenic substrate, fluorescence, set 3, SAR follow-up (AID 449727). Type of assay: functional.
Assay [11] addresses G-protein coupled receptor 55 (Homo sapiens, UniProt Q9Y2T6). The experiment in a line: blockers of GPR55 signalling, imaged – imaging, image-based, counter-screen for GPR35 antagonist project, SAR follow-up (AID 2397). Type of assay: functional.
For assay [12], the target named is T3, Replicative DNA helicase DnaB (Mycobacterium tuberculosis, UniProt P9WMR3).
T3 sequence (P9WMR3 whole entry): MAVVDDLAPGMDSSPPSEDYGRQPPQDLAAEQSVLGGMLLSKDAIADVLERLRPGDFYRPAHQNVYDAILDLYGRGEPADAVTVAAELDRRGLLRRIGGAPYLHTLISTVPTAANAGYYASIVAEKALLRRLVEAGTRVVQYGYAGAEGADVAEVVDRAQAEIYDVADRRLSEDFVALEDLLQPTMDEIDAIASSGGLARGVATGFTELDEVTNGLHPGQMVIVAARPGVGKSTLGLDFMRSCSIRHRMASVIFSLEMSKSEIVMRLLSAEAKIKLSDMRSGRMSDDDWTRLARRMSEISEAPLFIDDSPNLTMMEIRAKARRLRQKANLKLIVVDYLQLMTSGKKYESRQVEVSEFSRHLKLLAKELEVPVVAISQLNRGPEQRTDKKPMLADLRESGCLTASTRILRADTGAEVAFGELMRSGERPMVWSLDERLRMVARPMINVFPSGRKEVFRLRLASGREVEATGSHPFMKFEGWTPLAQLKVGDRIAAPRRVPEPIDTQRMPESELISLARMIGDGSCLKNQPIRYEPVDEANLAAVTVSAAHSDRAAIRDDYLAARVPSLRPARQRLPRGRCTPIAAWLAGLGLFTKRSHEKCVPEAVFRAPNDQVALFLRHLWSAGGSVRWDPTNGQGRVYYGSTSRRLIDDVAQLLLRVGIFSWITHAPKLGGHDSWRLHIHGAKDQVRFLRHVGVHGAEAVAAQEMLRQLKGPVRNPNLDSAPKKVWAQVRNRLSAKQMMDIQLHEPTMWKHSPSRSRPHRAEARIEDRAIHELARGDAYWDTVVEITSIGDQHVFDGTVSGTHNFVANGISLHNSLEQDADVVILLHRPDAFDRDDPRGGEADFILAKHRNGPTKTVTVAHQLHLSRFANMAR
The experiment in a line: DnaB intein splicing inhibitors, dose response, biochemical, cell-free fluorescence (AID 449749). Type of assay: functional.

For a further assay, the target named is T4, Protein RecA (Mycobacterium tuberculosis, UniProt P9WHJ3).
T4 sequence (P9WHJ3 whole entry): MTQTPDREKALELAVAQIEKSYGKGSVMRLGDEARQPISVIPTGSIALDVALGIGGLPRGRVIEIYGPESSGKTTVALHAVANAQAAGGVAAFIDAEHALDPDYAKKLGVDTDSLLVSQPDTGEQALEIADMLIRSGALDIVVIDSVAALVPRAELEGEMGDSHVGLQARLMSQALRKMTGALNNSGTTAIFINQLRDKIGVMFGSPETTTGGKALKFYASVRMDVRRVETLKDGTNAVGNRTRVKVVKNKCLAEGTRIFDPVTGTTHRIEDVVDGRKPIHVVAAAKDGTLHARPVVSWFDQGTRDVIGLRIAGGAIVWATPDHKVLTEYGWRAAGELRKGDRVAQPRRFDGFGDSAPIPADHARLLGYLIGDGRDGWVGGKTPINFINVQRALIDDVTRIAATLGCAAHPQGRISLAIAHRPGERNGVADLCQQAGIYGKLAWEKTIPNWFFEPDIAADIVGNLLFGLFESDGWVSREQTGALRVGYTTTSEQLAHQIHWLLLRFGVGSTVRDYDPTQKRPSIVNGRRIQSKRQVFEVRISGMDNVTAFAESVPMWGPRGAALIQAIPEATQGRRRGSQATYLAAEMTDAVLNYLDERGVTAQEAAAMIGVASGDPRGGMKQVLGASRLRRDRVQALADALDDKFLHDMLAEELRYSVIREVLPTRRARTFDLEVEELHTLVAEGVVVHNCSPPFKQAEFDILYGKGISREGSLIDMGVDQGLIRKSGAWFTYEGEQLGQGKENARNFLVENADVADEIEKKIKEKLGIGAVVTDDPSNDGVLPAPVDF
The experiment in a line: Fluorescence Cell-Free Homogeneous Dose Retest to Identify Inhibitors of RecA-Intein Splicing Activity. [Related pubchem assays (depositor defined):AID2097, AID2223, AID489010, AID492950]. It counts as functional.

The next assay addresses Trypsin (Sus scrofa, UniProt P00761). Description: trypsin protease activity blockade – biochemical, quenched peptide fluorescence, cherry-pick, selectivity assay for Rce1 protease inhibitor project, dose response (AID 488789).
Another assay deals with T5, CAAX prenyl protease 2 (Saccharomyces cerevisiae S288c, UniProt Q03530).
T5 sequence (Q03530 whole entry): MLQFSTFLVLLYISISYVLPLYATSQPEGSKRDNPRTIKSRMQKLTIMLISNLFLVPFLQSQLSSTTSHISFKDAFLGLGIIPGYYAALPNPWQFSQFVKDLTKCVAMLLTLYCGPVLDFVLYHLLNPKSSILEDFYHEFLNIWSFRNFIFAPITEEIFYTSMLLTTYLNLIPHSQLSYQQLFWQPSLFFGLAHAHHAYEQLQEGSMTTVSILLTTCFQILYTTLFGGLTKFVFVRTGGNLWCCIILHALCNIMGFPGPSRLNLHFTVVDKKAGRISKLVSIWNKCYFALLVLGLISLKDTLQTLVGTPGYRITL
Type of assay: biochemical.

A further assay deals with CAAX prenyl protease 1 (Saccharomyces cerevisiae S288c, UniProt P47154). Description: yeast CAAX protease Ste24 inhibition – biochemical, S. cerevisiae, plate reader, cherry-pick, dose response (AID 488815).
Assay [13] deals with T6, Mannose-6-phosphate isomerase (Homo sapiens, UniProt P34949).
T6 sequence (P34949 whole entry): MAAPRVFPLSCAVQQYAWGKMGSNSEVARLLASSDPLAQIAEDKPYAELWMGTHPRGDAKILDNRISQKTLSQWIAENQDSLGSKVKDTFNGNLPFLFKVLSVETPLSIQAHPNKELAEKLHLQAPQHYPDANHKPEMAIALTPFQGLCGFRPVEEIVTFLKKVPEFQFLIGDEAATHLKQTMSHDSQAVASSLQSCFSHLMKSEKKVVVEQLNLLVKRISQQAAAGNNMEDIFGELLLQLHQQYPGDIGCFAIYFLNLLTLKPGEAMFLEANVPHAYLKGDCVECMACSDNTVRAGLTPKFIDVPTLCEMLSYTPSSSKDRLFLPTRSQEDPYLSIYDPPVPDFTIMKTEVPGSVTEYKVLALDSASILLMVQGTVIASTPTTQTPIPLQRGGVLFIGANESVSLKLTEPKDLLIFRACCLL
Description: phosphomannose isomerase inhibition – biochemical, fluorescence intensity, confirmation (AID 1535).

The target in assay [14] is DNA dC->dU-editing enzyme APOBEC-3A (Homo sapiens, UniProt P31941). Description: A3A deaminase inhibition for selectivity – biochemical, dose response (AID 504722). Type of assay: functional.
Another assay addresses Phosphomannomutase 2 (Homo sapiens, UniProt O15305). Description: Counter screen SAR assay for PMM2 inhibitors via a fluorescence intensity assay. [Related pubchem assays (depositor defined):AID1545, AID1574].
The target of assay [15] is DNA dC->dU-editing enzyme APOBEC-3G (Homo sapiens, UniProt Q9HC16). The experiment in a line: Dose Response confirmation of small molecule APOBEC3G DNA Deaminase Inhibitors via a fluorescence-based single-stranded DNA deaminase assay. [Related pubchem assays (depositor defined):AID493012, AID493028]. It counts as functional.

Active and inactive are the calls of the source. A value given as a limit tells only on which side of the number the result lay.

Among the data in ChEMBL document CHEMBL1201862, “PubChem BioAssay data set” (2004) are IC50, AC50 and EC50 values, retold here.

Sequence of Phosphomannomutase 2 (O15305 whole entry): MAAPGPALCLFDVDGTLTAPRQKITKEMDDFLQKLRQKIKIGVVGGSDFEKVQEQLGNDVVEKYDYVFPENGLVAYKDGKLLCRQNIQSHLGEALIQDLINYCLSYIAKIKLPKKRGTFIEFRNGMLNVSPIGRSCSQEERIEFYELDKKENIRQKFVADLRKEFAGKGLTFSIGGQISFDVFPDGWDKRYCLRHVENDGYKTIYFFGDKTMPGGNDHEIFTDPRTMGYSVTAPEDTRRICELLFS
T1 sequence (Q9HC97 whole entry): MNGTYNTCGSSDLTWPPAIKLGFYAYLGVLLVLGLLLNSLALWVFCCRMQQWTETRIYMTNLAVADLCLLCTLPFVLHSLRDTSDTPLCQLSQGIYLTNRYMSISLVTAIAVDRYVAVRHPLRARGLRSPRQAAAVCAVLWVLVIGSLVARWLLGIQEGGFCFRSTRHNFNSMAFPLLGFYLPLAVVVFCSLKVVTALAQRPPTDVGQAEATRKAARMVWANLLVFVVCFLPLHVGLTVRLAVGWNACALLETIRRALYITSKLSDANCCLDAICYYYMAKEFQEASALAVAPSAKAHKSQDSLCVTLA
Sequence of G-protein coupled receptor 55 (Q9Y2T6 whole entry): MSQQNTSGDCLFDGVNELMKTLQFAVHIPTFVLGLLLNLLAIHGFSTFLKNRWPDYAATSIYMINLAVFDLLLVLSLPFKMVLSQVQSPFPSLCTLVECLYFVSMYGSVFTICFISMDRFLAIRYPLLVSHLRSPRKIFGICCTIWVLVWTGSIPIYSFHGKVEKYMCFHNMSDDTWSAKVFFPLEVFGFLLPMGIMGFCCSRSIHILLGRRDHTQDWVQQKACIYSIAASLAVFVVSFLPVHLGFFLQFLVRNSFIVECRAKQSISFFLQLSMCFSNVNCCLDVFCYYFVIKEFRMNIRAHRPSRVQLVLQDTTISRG
Sequence of Tyrosine-protein phosphatase non-receptor type 12 (Q05209 whole entry): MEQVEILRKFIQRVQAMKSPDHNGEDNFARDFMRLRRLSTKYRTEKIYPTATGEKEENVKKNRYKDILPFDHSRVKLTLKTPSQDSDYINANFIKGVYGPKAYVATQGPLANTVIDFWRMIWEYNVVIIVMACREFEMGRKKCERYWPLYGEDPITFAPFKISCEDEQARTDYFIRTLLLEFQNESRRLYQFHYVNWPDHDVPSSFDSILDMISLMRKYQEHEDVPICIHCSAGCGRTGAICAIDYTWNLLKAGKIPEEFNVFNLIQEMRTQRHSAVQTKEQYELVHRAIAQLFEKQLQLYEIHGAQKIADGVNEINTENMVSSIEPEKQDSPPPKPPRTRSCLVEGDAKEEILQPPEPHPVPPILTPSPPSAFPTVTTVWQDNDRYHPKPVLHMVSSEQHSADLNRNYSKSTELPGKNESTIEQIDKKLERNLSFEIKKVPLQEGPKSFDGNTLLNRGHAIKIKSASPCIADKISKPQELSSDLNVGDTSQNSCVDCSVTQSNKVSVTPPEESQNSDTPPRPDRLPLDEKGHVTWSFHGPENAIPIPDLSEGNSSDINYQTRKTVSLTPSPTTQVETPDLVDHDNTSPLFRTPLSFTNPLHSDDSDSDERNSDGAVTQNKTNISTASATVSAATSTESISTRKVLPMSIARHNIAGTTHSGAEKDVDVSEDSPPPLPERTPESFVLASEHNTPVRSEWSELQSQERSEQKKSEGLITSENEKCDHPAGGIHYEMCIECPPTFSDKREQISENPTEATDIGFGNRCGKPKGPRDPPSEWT
Sequence of Trypsin (P00761 whole entry): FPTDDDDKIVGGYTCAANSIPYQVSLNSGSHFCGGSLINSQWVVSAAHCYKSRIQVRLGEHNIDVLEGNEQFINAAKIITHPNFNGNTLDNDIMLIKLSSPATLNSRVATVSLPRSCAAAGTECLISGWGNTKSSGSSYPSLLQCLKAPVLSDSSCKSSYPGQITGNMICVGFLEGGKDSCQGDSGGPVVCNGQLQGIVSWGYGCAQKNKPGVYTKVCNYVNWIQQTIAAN
Sequence of CAAX prenyl protease 1 (P47154 whole entry): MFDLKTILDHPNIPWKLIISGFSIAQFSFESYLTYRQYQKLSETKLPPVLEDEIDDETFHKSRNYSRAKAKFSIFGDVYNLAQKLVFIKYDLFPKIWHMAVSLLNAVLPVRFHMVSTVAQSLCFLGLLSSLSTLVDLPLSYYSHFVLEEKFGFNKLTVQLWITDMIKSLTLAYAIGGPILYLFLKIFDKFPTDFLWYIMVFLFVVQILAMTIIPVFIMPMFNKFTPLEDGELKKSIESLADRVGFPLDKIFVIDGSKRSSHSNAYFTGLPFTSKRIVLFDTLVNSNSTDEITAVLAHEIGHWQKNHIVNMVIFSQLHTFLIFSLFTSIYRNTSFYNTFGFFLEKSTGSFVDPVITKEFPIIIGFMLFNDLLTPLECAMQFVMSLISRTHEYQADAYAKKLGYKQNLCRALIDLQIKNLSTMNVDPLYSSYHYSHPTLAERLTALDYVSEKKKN
Sequence of DNA dC->dU-editing enzyme APOBEC-3A (P31941 whole entry): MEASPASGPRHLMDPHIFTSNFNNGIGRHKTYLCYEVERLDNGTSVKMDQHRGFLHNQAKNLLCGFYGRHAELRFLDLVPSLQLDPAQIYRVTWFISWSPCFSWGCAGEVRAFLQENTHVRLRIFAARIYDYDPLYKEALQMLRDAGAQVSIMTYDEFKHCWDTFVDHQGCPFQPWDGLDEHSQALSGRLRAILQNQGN
Sequence of DNA dC->dU-editing enzyme APOBEC-3G (Q9HC16 whole entry): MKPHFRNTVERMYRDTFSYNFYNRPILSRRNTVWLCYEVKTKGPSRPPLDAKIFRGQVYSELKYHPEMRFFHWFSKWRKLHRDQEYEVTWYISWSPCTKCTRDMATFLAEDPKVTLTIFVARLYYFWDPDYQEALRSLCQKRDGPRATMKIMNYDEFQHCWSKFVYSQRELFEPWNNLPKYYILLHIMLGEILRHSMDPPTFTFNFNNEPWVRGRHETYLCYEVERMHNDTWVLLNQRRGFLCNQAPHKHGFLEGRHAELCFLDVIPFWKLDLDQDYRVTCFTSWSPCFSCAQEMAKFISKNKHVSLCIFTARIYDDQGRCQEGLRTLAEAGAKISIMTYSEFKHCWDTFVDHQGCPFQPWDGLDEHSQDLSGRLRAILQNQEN

For the compound `COc1c(Cl)cc(Cl)cc1/C=C/C(=O)c1ccc(NC(=O)c2cccs2)cc1`, the IC50 was 2.56 µM (active) in [1] and 1.35 µM (active) in [2]. Further, the AC50 in assay [3] was 1.12 µM (active).
In the case of `CN1/C(=C/C(=S)NC(=O)C2(C)CC2(Cl)Cl)C(C)(C)c2ccccc21` (centres undefined), the IC50 is 2.5 µM (active) in [1] and 0.851 µM (active) in [2]. Further, the EC50 in assay [4] is 3.4 µM (active); in [5], > 60 µM (not active).
`O=C(CCCN1C(=O)/C(=C/c2ccccc2)SC1=S)Nc1ccc(C(=O)O)c(O)c1`: the IC50 in [6] is < 0.5 µM (active); in [7], 2.67 µM (active); in assay [8], 17.2 µM (active); in assay [9] it was > 100 µM (inactive); in assay [10] it was 85 µM (active); in assay [11] it was > 32 µM (inactive). The AC50 in [12] was 12.3 µM (active). Besides, the EC50 on Protein RecA was 15.4 µM (active).
With `CC(C)c1cc(=O)oc2c3c4c(cc12)CCCN4CCC3`, the AC50 on Trypsin was 24.1 µM (active); at CAAX prenyl protease 2, > 100 µM (inactive); on CAAX prenyl protease 1 it was 4 µM (active).
As for `COc1ccc(OC)c(/N=c2\ssnc2Cl)c1`, the IC50 was 4.35 µM (active) in assay [13], > 100 µM (inactive) in [14], > 100 µM (inactive) on Phosphomannomutase 2 and 15.4 µM (active) in assay [15].
For the compound `Cc1ccc(/N=c2\ssnc2Cl)cc1[N+](=O)[O-]`, the half-inhibitory concentration (IC50) in assay [13] is 4.46 µM (active); on Phosphomannomutase 2, > 100 µM (inactive).
